What all share (assay type): physicochemical
Series [1] can be described thus: Evaluation of solubility in organic solvents. The following applies: room temperature (25° C.), complete dissolution by visual observation. Here is the method: Toluene and n-octane were each added to predetermined amounts of the aromatic compounds obtained in Examples 1, 4, 5, 6, 7, 8, 9, 12, 13, 14, 15, 18, 19, 20, 22 and 23 to give compositions for film formation. The weight of each organic solvent required to completely dissolve the aromatic compound at room temperature (25° C.) was measured, and solubility (% by weight) was calculated. The determination of the point of complete dissolution was confirmed by visual observation.

The nature of series [2]: Solution for forming an organic semiconductor layer: dissolved in toluene at 50° C., state after cooling to 25° C. The following applies: 0.20% by weight in toluene, dissolved at 50° C., after 10 hours at 25° C. The method, then: In air, 1.74 mg of the 2,8-di(2-cyclohexylethyl)anthra[1,2-b:5,6-b′]dithiophene synthesized in Example 2 (compound 2) and 868 mg of toluene (FUJIFILM Wako Pure Chemical Industries Corporation, pure grade) were added to a 10-ml sample tube. After dissolution by heating to 50° C., the solution was allowed to cool at room temperature (25° C.), whereby a solution for forming an organic semiconductor layer was prepared. […] (the concentration of compound 2 was 0.20% by weight), confirming that compound 2 is a compound suitable for film formation by drop casting and inkjet printing.

Test in series [3]: as above
The following applies: 0.44 mg in 434 mg of toluene, heated to 50° C., allowed to cool at room temperature (25° C.).

Take `c1cc2cc(CCC3CCCCC3)sc2c2cc3ccc4cc(CCC5CCCC5)sc4c3cc12` [Compound 14, 2-(2-Cyclohexylethyl)-8-(2-cyclopentylethyl)anthra[1,2-b:5,6-b′]dithiophene]: in series [1], the “Solubility [% by weight] n-octane” value is given as not below 1.0 % by weight and the “Solubility [% by weight] Toluene” value is not below 1.0 % by weight. Also, in series [2], the “state of solution for forming an organic semiconductor layer” value (“state of solution” below) was “remained in solution form”.
Turning to `c1cc2cc(CCC3CCCC3)sc2c2cc3ccc4cc(CCC5CCCC5)sc4c3cc12` [Compound 10, 2,8-Di(2-cyclopentylethyl)anthra[1,2-b:5,6-b′]dithiophene], the “state of solution” value in series [2] is “remained in solution form”.
`c1cc2ccc3cc4c(ccc5cc(CCC6CCCCC6)sc54)cc3c2s1` [Compound 1, 2-(2-Cyclohexylethyl)anthra[1,2-b:5,6-b′]dithiophene]: in series [1], the “Solubility [% by weight] n-octane” value is on record as not below 0.1 % by weight and the “Solubility [% by weight] Toluene” value is given as not below 1.0 % by weight.
For the compound `CC(C)Cc1cc2ccc3cc4c(ccc5cc(CCC6CCCCC6)sc54)cc3c2s1` [Compound 5, 2-(2-Cyclohexylethyl)-8-isobutylanthra[1,2-b:5,6-b′]dithiophene], in series [1], the “Solubility [% by weight] n-octane” value was not below 0.2 % by weight and the “Solubility [% by weight] Toluene” value is not below 1.0 % by weight.
For `c1cc2cc(CCC3CCCCC3)sc2c2c1-c1c-2ccc2cc(CCC3CCCCC3)sc12` [Compound 20, 2,7-Bis(2-cyclohexylethyl)biphenyleno[1,2-b:5,6-b′]dithiophene], in series [1], the “Solubility [% by weight] n-octane” value is reported as not below 0.5 % by weight and the “Solubility [% by weight] Toluene” value was not below 1.0 % by weight. For the same compound, in series [2], the “state of solution” value is on record as “remained in solution form”.
With `c1cc2ccc3c(c2s1)-c1ccc2cc(CCC4CCCCC4)sc2c1-3` [Compound 19, 2-(2-Cyclohexylethyl) biphenyleno[1,2-b:5,6-b′]dithiophene], in series [1], the “Solubility [% by weight] n-octane” value is given as not below 0.5 % by weight and the “Solubility [% by weight] Toluene” value is listed as not below 1.0 % by weight.
The like results for `CCCc1cc2ccc3cc4c(ccc5cc(CCC6CCCCC6)sc54)cc3c2s1` [Compound 4, 2-(2-Cyclohexylethyl)-8-propylanthra[1,2-b:5,6-b′]dithiophene] were, in that order, not below 0.5 % by weight and not below 1.0 % by weight.
Take `CCCCCCc1cc2ccc3cc4c(ccc5cc(CCC6CCCCC6)sc54)cc3c2s1` [Compound 8, 2-(2-Cyclohexylethyl)-8-hexylanthra[1,2-b:5,6-b′]dithiophene]: in series [1], the “Solubility [% by weight] n-octane” value is on record as not below 0.5 % by weight and the “Solubility [% by weight] Toluene” value was not below 1.0 % by weight. For the same compound, the “state of solution” value in series [2] is listed as “remained in solution form”.
For `CCCCc1cc2ccc3cc4c(ccc5cc(CCC6CCCCC6)sc54)cc3c2s1` [Compound 6, 2-Butyl-8-(2-cyclohexylethyl)anthra[1,2-b:5,6-b′]dithiophene], in series [1], the “Solubility [% by weight] n-octane” value is not below 0.5 % by weight and the “Solubility [% by weight] Toluene” value is given as not below 1.0 % by weight.
As for `c1cc2ccc3cc4c(ccc5cc(CCC6CCCC6)sc54)cc3c2s1` [Compound 9, 2-(2-Cyclopentylethyl) anthra[1,2-b:5,6-b′]dithiophene], in series [1], the “Solubility [% by weight] n-octane” value is recorded as not below 1.0 % by weight and the “Solubility [% by weight] Toluene” value is recorded as not below 1.0 % by weight.
As to `CCCCCCc1cc2ccc3cc4c(ccc5cc(CCC6CCCC6)sc54)cc3c2s1` [Compound 13, 2-(2-Cyclopentylethyl)-8-hexylanthra[1,2-b:5,6-b′]dithiophene], in series [1], the “Solubility [% by weight] n-octane” value is recorded as not below 0.5 % by weight and the “Solubility [% by weight] Toluene” value is not below 1.0 % by weight. Moreover, the “state of solution” value in series [2] is “remained in solution form”.
For `CC(C)Cc1cc2ccc3cc4c(ccc5cc(CCC6CCCC6)sc54)cc3c2s1` [Compound 12, 2-(2-Cyclopentylethyl)-8-isobutylanthra[1,2-b:5,6-b′]dithiophene], in that order: not below 0.5 % by weight, not below 1.0 % by weight and “remained in solution form”.
For `CCCCCCc1cc2ccc3cc4c(ccc5cc(CCCC6CCCCC6)sc54)cc3c2s1` [Compound 18, 2-(3-Cyclohexylpropyl)-8-hexylanthra[1,2-b:5,6-b′]dithiophene], in that order: not below 0.2 % by weight, not below 1.0 % by weight and “remained in solution form”.
On to `CCCCCCCCc1cc2ccc3cc4c(ccc5cc(CCCCCCCC)sc54)cc3c2s1` [2,8-dioctylanthra[1,2-b:5,6-b′]dithiophene, reference compound], for which, in series [2], the “state of solution” value was “remained in solution form”.
For the compound `c1cc2cc(CCC3CCCCC3)sc2c2cc3ccc4cc(CCC5CCCCC5)sc4c3cc12` [Compound 2, 2,8-Di(2-cyclohexylethyl)anthra[1,2-b:5,6-b′]dithiophene], the “state of solution” value in series [2] is given as “remained in solution form”.
For `CCCCCCCCc1ccc(CCc2cc3ccc4cc5c(ccc6cc(CCC7CCCCC7)sc65)cc4c3s2)cc1` [Compound 40, 2-(2-Cyclohexylethyl)-8-(4-octylphenylethyl)anthra[1,2-b:5,6-b′]dithiophene], the “state of solution” value in series [2] is on record as “remained in solution form”.
Regarding `CCCCCc1cc2ccc3cc4c(ccc5cc(CCC6CCCCC6)sc54)cc3c2s1` [Compound 7, 2-(2-Cyclohexylethyl)-8-pentylanthra[1,2-b:5,6-b′]dithiophene], in series [1], the “Solubility [% by weight] n-octane” value is listed as not below 0.2 % by weight and the “Solubility [% by weight] Toluene” value is given as not below 1.0 % by weight.
The like results for `c1cc2cc(CCC3CCCC3)sc2c2c1-c1c-2ccc2cc(CCC3CCCC3)sc12` [Compound 23, 2,7-Bis(2-cyclopentylethyl)biphenyleno[1,2-b:5,6-b′]dithiophene] were, in that order, not below 0.2 % by weight and not below 1.0 % by weight.
For the compound `CCCCCCc1cc2ccc3cc4c(ccc5cc(CCCC6CCCC6)sc54)cc3c2s1` [Compound 31, 2-(3-Cyclopentylpropyl)-8-hexylanthra[1,2-b:5,6-b′]dithiophene], the “state of solution” value in series [2] is “remained in solution form”.
Consider `CCCCCc1cc2ccc3cc4c(ccc5cc(CCCC6CCCCC6)sc54)cc3c2s1` [Compound 25, 2-(3-Cyclohexylpropyl)-8-pentylanthra[1,2-b:5,6-b′]dithiophene], for which the “state of solution” value in series [2] was “remained in solution form”.
Take `c1cc2ccc3cc4c(ccc5cc(CCCC6CCCCC6)sc54)cc3c2s1` [Compound 15, 2-(3-Cyclohexylpropyl)anthra[1,2-b:5,6-b′]dithiophene]: in series [1], the “Solubility [% by weight] n-octane” value is recorded as not below 0.5 % by weight and the “Solubility [% by weight] Toluene” value is given as not below 1.0 % by weight.
With `c1ccc(-c2ccc3c(c2)sc2c4ccc(-c5ccccc5)cc4sc32)cc1` [2,7-diphenyl[1]benzothieno[3,2-b][1]benzothiophene], in series [3], the “state of solution” value was “solid precipitation observed”.
